The subject of the experiment is P388 leukemia ip, CD2F1 mice, survival T/C. Briefly: NCI In Vivo Anticancer Drug Screen. Data for tumor model P388 Leukemia (intraperitoneal) in CD2F1 (CDF1) mice. The following applies: endpoint: median survival time, higher = longer survival. A digest of the protocol: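 Mice carrying the transplanted tumor received test compound or vehicle. Survival was recorded in each group, and the value is the treated-group measurement divided by that of the vehicle-treated control group.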

Setting [1] is: dose: 100.0 mg/kg/injection, schedule: Q01DX005 (ip), vehicle: Klucel (hydroxypropylcellulose) (HPC).
[2] abbreviates: dose: 200.0 mg/kg/injection, schedule: Q01DX005 (ip), vehicle: Klucel (hydroxypropylcellulose) (HPC).
The mark [3] stands for this setting: dose: 50.0 mg/kg/injection, schedule: Q01DX009 (ip), vehicle: Klucel (hydroxypropylcellulose) (HPC).
The mark [4] stands for this setting: dose: 100.0 mg/kg/injection, schedule: Q01DX009 (ip), vehicle: Klucel (hydroxypropylcellulose) (HPC).
Where [5] appears, read: dose: 200.0 mg/kg/injection, schedule: Q01DX009 (ip), vehicle: Klucel (hydroxypropylcellulose) (HPC).
The mark [6] stands for this setting: dose: 100.0 mg/kg/injection, schedule: Q04DX003 (ip), vehicle: saline with Tween-80.
Where [7] appears, read: dose: 50.0 mg/kg/injection, schedule: Q01DX005 (ip), vehicle: saline.
Where [8] appears, read: dose: 100.0 mg/kg/injection, schedule: Q01DX005 (ip), vehicle: saline.
Where [9] appears, read: dose: 60.0 mg/kg/injection, schedule: Q01DX005 (ip), vehicle: saline with Tween-80.
Setting [10] is: dose: 120.0 mg/kg/injection, schedule: Q01DX005 (ip), vehicle: saline with Tween-80.
Where [11] appears, read: dose: 240.0 mg/kg/injection, schedule: Q01DX005 (ip), vehicle: saline with Tween-80.

Each structure is given as a SMILES string. Values joined by “and” are separate entries in the source; they are usually repeats but may differ in a detail not shown here. Equal entries are not always repeated. Inconclusive results and toxic doses are left out.

As to `O=C1C(n2ccc(=O)[nH]c2=O)CCN1CCCl` (configuration not stated), the T/C by setting is: under setting [1], 108 % of control; under setting [2], 108 % of control.

With `COc1cccc2c1C(=O)c1c(O)c3c(c(O)c1C2=O)C[C@@](O)(C(=O)CO)C[C@@H]3OC1CC(N)CC(C)O1` (some centres not stated), the T/C (dose: 0.1 mg/kg/injection, schedule: Q01DX009 (ip), vehicle: water) was 157 % of control; the T/C (dose: 0.2 mg/kg/injection, schedule: Q01DX009 (ip), vehicle: water) was 154 % of control and 157 % of control; the T/C (dose: 0.32 mg/kg/injection, schedule: Q01DX009 (ip), vehicle: saline) is 166 % of control; the T/C (dose: 0.39 mg/kg/injection, schedule: Q01DX009 (ip), vehicle: water) was 173 % of control and 186 % of control; the T/C (dose: 0.54 mg/kg/injection, schedule: Q01DX009 (ip), vehicle: saline) is 191 % of control; the T/C (dose: 0.78 mg/kg/injection, schedule: Q01DX009 (ip), vehicle: water) is 185 % of control and 280 % of control. The T/C is, setting by setting: (dose: 0.9 mg/kg/injection, schedule: Q01DX009 (ip), vehicle: saline) 314 % of control; (dose: 1.5 mg/kg/injection, schedule: Q01DX009 (ip), vehicle: saline) 201 % of control; (dose: 1.56 mg/kg/injection, schedule: Q01DX009 (ip), vehicle: water) 157 % of control and 226 % of control and 89 % of control; (dose: 1.8 mg/kg/injection, schedule: Q04DX003 (ip), vehicle: saline) 200 % of control; (dose: 3.0 mg/kg/injection, schedule: Q04DX003 (ip), vehicle: saline) 154 % of control and 275 % of control; (dose: 3.13 mg/kg/injection, schedule: Q04DX003 (ip), vehicle: water) 158 % of control. Moreover, the T/C (dose: 12.5 mg/kg/injection, schedule: Q04DX003 (ip), vehicle: water) is 103 % of control.

As for `C=CCN1C(=O)NC(=O)C(c2ccccc2)C1=O` (configuration not stated), the T/C by setting is: under setting [3], 98 % of control; under setting [4], 100 % of control; under setting [5], 92 % of control.

Take `Clc1cccc(Cl)c1C1CSc2ccccc2N=C1c1ccccc1` (configuration not stated): the T/C under setting [3] was 94 % of control, the T/C under setting [4] was 100 % of control and the T/C under setting [5] was 100 % of control.

`C[n+]1c(-c2cccc(OCCCCCCCOc3cccc(-c4c5cc(N)ccc5c5ccc(N)cc5[n+]4C)c3)c2)c2cc(N)ccc2c2ccc(N)cc21`: the T/C by setting is: (dose: 0.05 mg/kg/injection, schedule: Q01DX009 (ip), vehicle: water) 123 % of control; (dose: 25.0 micrograms/kg/injection, schedule: Q01DX009 (ip), vehicle: water) 103 % of control; (dose: 50.0 micrograms/kg/injection, schedule: Q01DX009 (ip), vehicle: water) 118 % of control; (dose: 100.0 micrograms/kg/injection, schedule: Q01DX009 (ip), vehicle: water) 120 % of control; (dose: 200.0 micrograms/kg/injection, schedule: Q01DX009 (ip), vehicle: water) 100 % of control.

`COCCCN(Cc1cc(OC)c(OC)c(OC)c1)C(=S)Nc1cccc(Cl)c1`: the T/C runs as follows: (dose: 50.0 mg/kg/injection, schedule: Q01DX009 (ip), vehicle: saline) 92 % of control; (dose: 100.0 mg/kg/injection, schedule: Q01DX009 (ip), vehicle: saline) 90 % of control; (dose: 200.0 mg/kg/injection, schedule: Q01DX009 (ip), vehicle: saline) 94 % of control.

With `OCCN1CCN(CC/C=C2\c3ccccc3Sc3ccc(Cl)cc32)CC1`, the T/C is 102 % of control (dose: 3.13 mg/kg/injection, schedule: Q01DX009 (ip), vehicle: saline); 113 % of control (dose: 6.25 mg/kg/injection, schedule: Q01DX009 (ip), vehicle: saline); 109 % of control (dose: 11.0 mg/kg/injection, schedule: Q01DX009 (ip), vehicle: saline with Tween-80); 88 % of control (dose: 50.0 mg/kg/injection, schedule: Q04DX003 (ip), vehicle: saline).

As for `Cc1c(Cl)c(C)c(Cl)c(O)c1Cl`, the T/C is 104 % of control under setting [6]; 100 % of control (dose: 200.0 mg/kg/injection, schedule: Q04DX003 (ip), vehicle: saline with Tween-80); 104 % of control (dose: 400.0 mg/kg/injection, schedule: Q04DX003 (ip), vehicle: saline with Tween-80).

Turning to `Cc1cc2nc(CN(CCO)CCO)[nH]c2cc1C`, the T/C under setting [7] was 100 % of control; the T/C under setting [8] is 98 % of control; the T/C (dose: 200.0 mg/kg/injection, schedule: Q01DX005 (ip), vehicle: saline) was 98 % of control.

On to `CC1C(n2[nH]c(=O)n(C)c2=O)c2ccccc2-n2c(=O)n(C)c(=O)n21` (configuration not stated), for which the T/C is 96 % of control (dose: 50.0 mg/kg/injection, schedule: Q01DX005 (ip), vehicle: Klucel (hydroxypropylcellulose) (HPC)); 101 % of control under setting [1]; 103 % of control under setting [2].

With `CC1CCn2c(nc3c2c(=O)n(C)c(=O)n3C)N1` (configuration not stated), the T/C under setting [9] is 102 % of control and 100 % of control; the T/C under setting [10] is 93 % of control and 94 % of control; the T/C under setting [11] was 93 % of control and 91 % of control.

Turning to `Cc1nc2c([N+](=O)[O-])c(N3CCN(C)CC3)c([N+](=O)[O-])cc2[nH]1`, the T/C reads like this: (dose: 12.5 mg/kg/injection, schedule: Q04DX003 (ip), vehicle: saline with Tween-80) 95 % of control; (dose: 25.0 mg/kg/injection, schedule: Q04DX003 (ip), vehicle: saline with Tween-80) 106 % of control; (dose: 50.0 mg/kg/injection, schedule: Q04DX003 (ip), vehicle: saline with Tween-80) 100 % of control and 90 % of control; under setting [6], 104 % of control.

Turning to `O=C(Nc1ccc(Cl)cc1)Nc1nnc2nc(CC(=O)c3cccc([N+](=O)[O-])c3Cl)c(=O)[nH]n12`, the T/C runs as follows: under setting [9], 99 % of control; under setting [10], 101 % of control; under setting [11], 100 % of control.

`CSCCCNCc1ccc([N+](=O)[O-])cc1`: the T/C under setting [7] is 97 % of control and the T/C under setting [8] is 111 % of control.

`C=CCn1nc([O-])[n+]2ccccc12`: the T/C (dose: 100.0 mg/kg/injection, schedule: Q01DX001 (ip), vehicle: saline) is 95 % of control; the T/C (dose: 200.0 mg/kg/injection, schedule: Q01DX001 (ip), vehicle: saline) was 95 % of control; the T/C (dose: 400.0 mg/kg/injection, schedule: Q01DX001 (ip), vehicle: saline) is 104 % of control.

For `C=CCC(C)(C#N)C1C=CCC1` (configuration not stated), the T/C (dose: 100.0 mg/kg/injection, schedule: Q01DX009 (ip), vehicle: saline sonified) was 100 % of control; the T/C (dose: 200.0 mg/kg/injection, schedule: Q01DX009 (ip), vehicle: saline sonified) is 100 % of control; the T/C (dose: 400.0 mg/kg/injection, schedule: Q01DX009 (ip), vehicle: saline sonified) is 122 % of control.

As to `O=C1C=CC(=O)C(CC2CCCC2C2=CC(=O)C=CC2=O)=C1` (configuration not stated), the T/C runs as follows: (dose: 6.25 mg/kg/injection, schedule: Q04DX002 (ip), vehicle: saline with Tween-80) 109 % of control; (dose: 12.5 mg/kg/injection, schedule: Q04DX002 (ip), vehicle: saline with Tween-80) 101 % of control; (dose: 25.0 mg/kg/injection, schedule: Q04DX002 (ip), vehicle: saline with Tween-80) 99 % of control and 109 % of control.

Regarding `CN(C(=O)C1CC1)c1ccccc1`, the T/C runs as follows: (dose: 50.0 mg/kg/injection, schedule: Q01DX009 (ip), vehicle: saline with Tween-80) 105 % of control; (dose: 100.0 mg/kg/injection, schedule: Q01DX009 (ip), vehicle: saline with Tween-80) 107 % of control.

Take `C#CCSC1=NS(=O)(=O)c2ccccc21`: the T/C reads like this: (dose: 7.5 mg/kg/injection, schedule: Q01DX005 (ip), vehicle: saline with Tween-80) 115 % of control; (dose: 15.0 mg/kg/injection, schedule: Q01DX005 (ip), vehicle: saline with Tween-80) 115 % of control; (dose: 30.0 mg/kg/injection, schedule: Q01DX005 (ip), vehicle: saline with Tween-80) 98 % of control and 115 % of control; under setting [9], 106 % of control.

In the case of `CCOC(=O)c1ccc(OC)c2[nH]c3c(c(=O)c12)C(=O)c1[nH]c2c(OC)ccc(C(=O)OCC)c2c(=O)c1C3=O`, the T/C runs as follows: (dose: 100.0 mg/kg/injection, schedule: Q04DX003 (ip), vehicle: Klucel (hydroxypropylcellulose) (HPC)) 97 % of control; (dose: 200.0 mg/kg/injection, schedule: Q04DX003 (ip), vehicle: Klucel (hydroxypropylcellulose) (HPC)) 103 % of control; (dose: 400.0 mg/kg/injection, schedule: Q04DX003 (ip), vehicle: Klucel (hydroxypropylcellulose) (HPC)) 100 % of control.

(Values after PubChem BioAssay AID330 (DTP/NCI, 2004).)
